{"source": "patent US20250009896A1", "about": "“SUPR[…] BASED VIRAL […] CAPTURE FOR PREVENTION AND THERAPY OF VIRAL INFECTION” (The Johns Hopkins University, priority 2023, published 2025)", "key": {"[1]": {"assay": "Critical micelle concentration by Nile Red assay", "format": "physicochemical", "conditions": "MilliQ water pH=7.4, Nile Red assay", "protocol": "Using a Nile Red assay, the CMC of each PA monomer (Filler and Ligand) and their co-assembly (1:1 molar ratio) was determined. Nile Red dye intensely fluoresces within hydrophobic environments but is strongly quenched and red-shifted in aqueous environments. Thus, when mixed with PAs at a concentration exceeding the CMC, Nile Red will embed within the hydrophobic core and emit a strong fluorescence signal. A 500 μM stock solution of Nile Red was prepared in acetone, and 10 μL of the stock was added to microcentrifuge tubes. Acetone was evaporated off in the dark. Solutions of the samples (500 μL, water) were added to the tubes at varied concentrations and were aged for 2 days in the dark at room temperature. Samples were added to a quartz micro fluorometer cell (0.7 mL, 10 mm pathlength, Starna Cells, Atascadero, CA), and at an excitation wavelength of 550 nm, five parallel emission spectra were recorded at a wavelength range of 580 to 720 nm on a Duetta UV-Vis-NIR spectrofluorometer (HORIBA Scientific). The emission intensity ratio for each run at 635 nm (emission maximum of Nile Red in a hydrophobic environment) to 660 nm (emission maximum of Nile Red in a hydrophilic environment) was plotted against tested concentrations to obtain a transition curve from which CMC was determined."}, "[2]": {"biological_target": "Recombinant human angiotensin-converting enzyme 2 (ACE2) (Homo sapiens, UniProt Q9BYF1)", "sequence (Q9BYF1 18-740)": "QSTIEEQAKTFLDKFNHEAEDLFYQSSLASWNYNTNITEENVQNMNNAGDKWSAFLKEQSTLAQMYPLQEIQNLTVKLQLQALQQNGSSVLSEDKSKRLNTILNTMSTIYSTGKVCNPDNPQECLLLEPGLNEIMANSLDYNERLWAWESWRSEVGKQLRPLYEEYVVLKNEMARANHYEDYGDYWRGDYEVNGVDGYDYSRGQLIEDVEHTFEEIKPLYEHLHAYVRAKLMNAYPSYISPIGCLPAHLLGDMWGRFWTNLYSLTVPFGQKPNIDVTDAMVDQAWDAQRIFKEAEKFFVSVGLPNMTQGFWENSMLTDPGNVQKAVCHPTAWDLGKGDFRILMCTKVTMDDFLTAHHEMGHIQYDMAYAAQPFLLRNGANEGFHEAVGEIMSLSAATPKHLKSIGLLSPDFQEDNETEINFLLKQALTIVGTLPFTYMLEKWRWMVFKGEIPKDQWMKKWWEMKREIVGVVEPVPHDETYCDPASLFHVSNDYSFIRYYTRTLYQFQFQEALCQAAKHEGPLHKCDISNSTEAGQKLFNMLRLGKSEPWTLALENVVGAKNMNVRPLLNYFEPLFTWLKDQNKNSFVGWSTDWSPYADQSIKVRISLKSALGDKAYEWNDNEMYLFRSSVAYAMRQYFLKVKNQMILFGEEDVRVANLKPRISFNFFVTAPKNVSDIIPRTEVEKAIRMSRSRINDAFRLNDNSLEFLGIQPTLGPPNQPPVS", "assay": "ACE2 activity assay with fluorogenic peptide substrate Mca-YVADAPK(Dnp)-OH", "conditions": "50 nM ACE2; 1 mM Filler or 50 μM Ligand"}, "SARS-CoV PsV": {"tested_on": "SARS-CoV PsV", "format": "cell-based"}, "SARS-CoV-2 PsV": {"tested_on": "SARS-CoV-2 PsV", "format": "cell-based", "conditions": "0.5 nM ACE2 dose"}, "VSVG PsV": {"tested_on": "VSVG PsV", "format": "cell-based, vesicular stomatitis virus"}, "ACE2 [3]": {"biological_target": "T1, ACE2 (Homo sapiens, UniProt Q9BYF1)", "T1 sequence (Q9BYF1 18-805)": "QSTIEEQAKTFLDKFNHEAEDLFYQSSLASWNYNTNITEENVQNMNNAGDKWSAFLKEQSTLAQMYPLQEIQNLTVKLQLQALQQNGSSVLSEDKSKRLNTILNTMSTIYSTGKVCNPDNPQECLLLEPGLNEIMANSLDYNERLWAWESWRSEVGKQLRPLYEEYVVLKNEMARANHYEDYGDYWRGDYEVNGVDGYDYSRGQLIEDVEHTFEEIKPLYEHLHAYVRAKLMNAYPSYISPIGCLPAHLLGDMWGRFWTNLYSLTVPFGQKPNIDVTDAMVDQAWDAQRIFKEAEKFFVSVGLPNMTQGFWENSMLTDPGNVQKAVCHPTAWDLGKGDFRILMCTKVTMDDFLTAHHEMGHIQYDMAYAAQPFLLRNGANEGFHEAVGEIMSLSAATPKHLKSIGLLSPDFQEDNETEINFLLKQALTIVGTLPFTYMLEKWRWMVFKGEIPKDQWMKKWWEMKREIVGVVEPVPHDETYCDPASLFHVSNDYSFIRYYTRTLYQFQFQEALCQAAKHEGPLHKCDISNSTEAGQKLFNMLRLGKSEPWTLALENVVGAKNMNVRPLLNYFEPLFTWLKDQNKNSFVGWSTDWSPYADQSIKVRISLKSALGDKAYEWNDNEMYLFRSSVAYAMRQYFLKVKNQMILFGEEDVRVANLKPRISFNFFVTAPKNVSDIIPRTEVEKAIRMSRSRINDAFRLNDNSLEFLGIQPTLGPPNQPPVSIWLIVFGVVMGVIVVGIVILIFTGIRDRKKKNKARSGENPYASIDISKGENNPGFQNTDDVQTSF", "conditions": "cited from earlier work"}, "ACE2 [4]": {"biological_target": "T1, ACE2", "conditions": "ACE2 inhibitor; cited from earlier work"}}, "note": "Residues, ends and D or L forms follow the SMILES beside them. *: point of attachment. Lauroyl = CCCCCCCCCCCC(=O)*", "data": [{"compound": "CCCCCCCCCCCC(=O)N[C@H](C(=O)N[C@H](C(=O)N[C@H](C(=O)NCC(=O)N[C@@H](CCC(=O)O)C(=O)N[C@@H](CCC(=O)O)C(N)=O)C(C)C)C(C)C)C(C)C", "note": "[Filler] (Lauroyl-VVVGEE-NH2)", "values": [{"measurement": "critical micelle concentration (CMC)", "setting": "[1]", "value": "around 2.9 μM"}, {"measurement": "impact on ACE2 activity / initial velocity", "setting": "[2]", "value": "slight impact on ACE2 activity"}]}, {"compound": "ACE2: Recombinant human angiotensin-converting enzyme 2 (ACE2) protein (carrier-free), R&D Systems", "values": [{"measurement": "SARS-CoV PsV infection inhibition", "setting": "SARS-CoV PsV", "value": "strongly inhibited"}, {"measurement": "incubation time at which inhibition becomes identical to / indistinguishable from empty filaments", "setting": "SARS-CoV-2 PsV", "value": "≤ 6", "unit": "h"}, {"measurement": "VSVG PsV infection inhibition (dose-dependent strong inhibition trend)", "setting": "VSVG PsV", "value": "not observed"}]}, {"compound": "non-cleavable peptidic ACE2 inhibitor GDYSHCSPLRYYPWWKCTYPDPEGGG (SEQ ID NO: 5/16) [DX600]", "values": [{"measurement": "Kd", "setting": "ACE2 [3]", "value": 10.1, "unit": "nM"}, {"measurement": "Ki", "setting": "ACE2 [4]", "value": 2.8, "unit": "nM"}]}]}
